Test results from US10173991B2, “Sulfone amide linked benzothiazole inhibitors of endothelial lipase” (BRISTOL-MYERS SQUIBB COMPANY, priority 2014, dated 2019).

target: Endothelial lipase (EL) (Homo sapiens (Human), UniProt Q9Y5X9); assay: Endothelial lipase (EL) enzymatic assay with fluorescent substrate A10070 in DMPG vesicles; format: biochemical
How it was run: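 Substrate A10070 sits in sonicated DMPG vesicles at 0.11 mole fraction. Lipase and compound preincubated 30 min, 37° C, in HEPES pH 8.0 buffer with CaCl2.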

Sequence of Endothelial lipase (EL) (Q9Y5X9 21-500): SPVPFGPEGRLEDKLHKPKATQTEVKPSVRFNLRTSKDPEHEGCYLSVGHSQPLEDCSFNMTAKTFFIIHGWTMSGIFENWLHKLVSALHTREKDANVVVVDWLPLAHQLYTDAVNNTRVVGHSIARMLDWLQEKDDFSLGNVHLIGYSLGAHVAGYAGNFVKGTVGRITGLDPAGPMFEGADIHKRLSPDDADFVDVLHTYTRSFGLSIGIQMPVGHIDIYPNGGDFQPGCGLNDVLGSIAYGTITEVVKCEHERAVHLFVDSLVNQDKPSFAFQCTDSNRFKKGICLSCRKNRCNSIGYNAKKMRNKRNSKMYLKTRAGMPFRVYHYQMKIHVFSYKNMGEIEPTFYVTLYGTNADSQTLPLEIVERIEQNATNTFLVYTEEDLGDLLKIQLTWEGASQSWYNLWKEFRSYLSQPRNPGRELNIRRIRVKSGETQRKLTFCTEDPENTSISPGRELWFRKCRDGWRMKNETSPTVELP

IC50 | Compound
58 nM | COCCS(=O)(=O)C(C(=O)NCC(=O)NC1CC1)c1nc2cc(-c3cnc(F)cc3C)ccc2s1 (stereo not drawn) [Example 81, N-[(cyclopropyl-carbamoyl)methyl]-2-[5-(6-fluoro-4-methylpyridin-3-yl)-1,3-benzothiazol-2-yl]-2-(2-methoxyethane-sulfonyl) acetamide]
61 nM | COCCS(=O)(=O)C(C(=O)NCC(=O)NC1CC1)c1nc2cc(-c3cccnc3F)ccc2s1 (stereo not drawn) [Example 82, N-[(cyclopropyl-carbamoyl)methyl]-2-[5-(2-fluoropyridin-3-yl)-1,3-benzothiazol-2-yl]-2-(2-methoxyethane-sulfonyl) acetamide]
71 nM | COCCS(=O)(=O)C(C(=O)NCC(=O)NC1CC1)c1nc2cc(-c3ccc(Cl)cn3)ccc2s1 (stereo not drawn) [Example 83, 2-[5-(5-chloropyridin-2-yl)-1,3-benzothiazol-2-yl]-N-[(cyclopropyl-carbamoyl)methyl]-2-(2-methoxyethane-sulfonyl)acetamide]
82 nM | COCCS(=O)(=O)C(C(=O)NCC(=O)NC1CC1)c1nc2cc(-c3cccc(OC)c3)ccc2s1 (stereo not drawn) [Example 84, N-[(cyclopropyl-carbamoyl)methyl]-2-(2-methoxyethane-sulfonyl)-2-[5-(3-methoxyphenyl)-1,3-benzothiazol-2-yl]acetamide]
85 nM | COCCS(=O)(=O)C(C(=O)NCC(=O)NC1CC1)c1nc2cc(-c3cccnc3)ccc2s1 (stereo not drawn) [Example 85, N-[(cyclopropyl-carbamoyl)methyl]-2-(2-methoxyethane-sulfonyl)-2-[5-(pyridin-3-yl)-1,3-benzothiazol-2-yl]acetamide]
293 nM | COCCS(=O)(=O)C(C(=O)NCC(=O)NC1CC1)c1nc2cc(-c3cncnc3C(C)C)ccc2s1 (stereo not drawn) [Example 86, N-[(cyclopropyl-carbamoyl)methyl]-2-(2-methoxyethane-sulfonyl)-2-{5-[4-(propan-2-yl)pyrimidin-5-yl]-1,3-benzothiazol-2-yl}acetamide]
346 nM | CCOc1ncccc1-c1ccc2sc(C(C(=O)NCC(=O)NC3CC3)S(=O)(=O)CCOC)nc2c1 (stereo not drawn) [Example 87, N-[(cyclopropyl-carbamoyl)methyl]-2-[5-(2-ethoxypyridin-3-yl)-1,3-benzothiazol-2-yl]-2-(2-methoxyethane-sulfonyl) acetamide]
82 nM | COCCS(=O)(=O)C(C(=O)NCC(=O)NC1CC1)c1nc2cc(-c3ccc(F)nc3C)ccc2s1 (stereo not drawn) [Example 88, N-[(cyclopropyl-carbamoyl)methyl]-2-[5-(6-fluoro-2-methylpyridin-3-yl)-1,3-benzothiazol-2-yl]-2-(2-methoxyethane-sulfonyl) acetamide]
171 nM | COCCS(=O)(=O)C(C(=O)NCC(=O)NC1CC1)c1nc2cc(-c3cccc(F)n3)ccc2s1 (stereo not drawn) [Example 89, N-[(cyclopropyl-carbamoyl)methyl]-2-[5-(6-fluoropyridin-2-yl)-1,3-benzothiazol-2-yl]-2-(2-methoxyethane-sulfonyl) acetamide]
274 nM | COCCS(=O)(=O)C(C(=O)NCC(=O)NC1CC1)c1nc2cc(-c3ccc(F)cn3)ccc2s1 (stereo not drawn) [Example 90, N-[(cyclopropyl-carbamoyl)methyl]-2-[5-(5-fluoropyridin-2-yl)-1,3-benzothiazol-2-yl]-2-(2-methoxyethane-sulfonyl) acetamide]
18 nM | COCCS(=O)(=O)C(C(=O)NCC(=O)NC1CC1)c1nc2cc(-c3cccnc3C)ccc2s1 (stereo not drawn) [Example 91, N-[(cyclopropyl-carbamoyl)methyl]-2-(2-methoxyethane-sulfonyl)-2-[5-(2-methylpyridin-3-yl)-1,3-benzothiazol-2-yl]acetamide]
77 nM | COCCS(=O)(=O)C(C(=O)NCC(=O)NC1CC1)c1nc2cc(-c3c(C)ccnc3F)ccc2s1 (stereo not drawn) [Example 92, N-[(cyclopropyl-carbamoyl)methyl]-2-[5-(2-fluoro-4-methylpyridin-3-yl)-1,3-benzothiazol-2-yl]-2-(2-methoxyethane-sulfonyl) acetamide]
1 nM | COCCS(=O)(=O)C(C(=O)NCC(=O)NC1CC1)c1nc2ccc(-c3ccc(-c4ncco4)cc3)cc2s1 (stereo not drawn) [Example 93, N-[(cyclopropyl-carbamoyl)methyl]-2-(2-methoxyethane-sulfonyl)-2-{6[4-(1,3-oxazol-2-yl)phenyl]-1,3-benzothiazol-2-yl} acetamide]
2 nM | COCCS(=O)(=O)C(C(=O)NCC(=O)NC1CC1)c1nc2cc(Cl)c(-c3ccc(NC(=O)OC)cc3)cc2s1 (stereo not drawn) [Example 94, methyl N-{4-[5-chloro-2-({[(cyclopropyl-carbamoyl)methyl]carbamoyl}(2-methoxyethane-sulfonyl)methyl)-1,3-benzothiazol-6-yl]phenyl} carbamate]
2 nM | COC(=O)Nc1ccc(-c2ccc3nc(C(C(=O)NCC(=O)NC4CC4)S(C)(=O)=O)sc3c2)cc1 (stereo not drawn) [Example 95, methyl N-{4-[2-({[(cyclopropyl-carbamoyl)methyl]carbamoyl} (methanesulfonyl)methyl)-1,3-benzothiazol-6-yl]phenyl}carbamate]
2 nM | COCCS(=O)(=O)C(C(=O)NCC(=O)NC1CC1)c1nc2cc(Cl)c(-c3ccc(NC(C)=O)cc3)cc2s1 (stereo not drawn) [Example 96, 2-[5-chloro-6-(4-acetamidophenyl)-1,3-benzothiazol-2-yl]-N-[(cyclopropyl-carbamoyl)methyl]-2-(2-methoxyethane-sulfonyl) acetamide]
4 nM | COCCS(=O)(=O)C(C(=O)NCC(=O)NC1CC1)c1nc2ccc(-c3ccc(C(=O)NCC(F)(F)F)cc3)cc2s1 (stereo not drawn) [Example 97, 4-[2-({[(cyclopropyl-carbamoyl)methyl]carbamoyl}(2-methoxyethane-sulfonyl)methyl)-1,3-benzothiazol-6-yl]-N-(2,2,2-trifluoroethyl) benzamide]
8 nM | COCCS(=O)(=O)C(C(=O)NCC(=O)NC1CC1)c1nc2ccc(-c3ccc(NC(C)=O)cc3)cc2s1 (stereo not drawn) [Example 98, N-[(cyclopropyl-carbamoyl)methyl]-2-[6-(4-acetamidophenyl)-1,3-benzothiazol-2-yl]-2-(2-methoxyethane-sulfonyl) acetamide]
8 nM | COCCNC(=O)c1ccc(-c2cc3sc(C(C(=O)NCC(=O)NC4CC4)S(=O)(=O)CCOC)nc3cc2Cl)cc1 (stereo not drawn) [Example 99, 4-[5-chloro-2-({[(cyclopropyl-carbamoyl)methyl]carbamoyl}(2-methoxyethane-sulfonyl)methyl)-1,3-benzothiazol-6-yl]-N-(2-methoxyethyl) benzamide]
8 nM | COCCS(=O)(=O)C(C(=O)NCC(=O)NC1CC1)c1nc2ccc(-c3ccc(NC(=O)OC)cc3)cc2s1 (stereo not drawn) [Example 100, methyl N-{4-[2-({[(cyclopropyl-carbamoyl)methyl]carbamoyl}(2-methoxyethane-sulfonyl)methyl)-1,3-benzothiazol-6-yl]phenyl} carbamate]
9 nM | COCCS(=O)(=O)C(C(=O)NCC(=O)NC1CC1)c1nc2ccc(-c3ccc(-c4nnc(C)o4)cc3)cc2s1 (stereo not drawn) [Example 101, N-[(cyclopropyl-carbamoyl)methyl]-2-(2-methoxyethane-sulfonyl)-2-{6-[4-(5-methyl-1,3,4-oxadiazol-2-yl)phenyl]-1,3-benzothiazol-2-yl} acetamide]
14 nM | CC(=O)Nc1ccc(-c2ccc3nc(C(C(=O)NCC(=O)NC4CC4)S(C)(=O)=O)sc3c2)cc1 (stereo not drawn) [Example 102, N-[(cyclopropyl-carbamoyl)methyl]-2-[6-(4-acetamidophenyl)-1,3-benzothiazol-2-yl]-2-methanesulfonyl-acetamide]
20 nM | CS(=O)(=O)C(C(=O)NCC(=O)NC1CC1)c1nc2ccc(-c3ccc(C(=O)NCC(F)(F)F)cc3)cc2s1 (stereo not drawn) [Example 103, 4-[2-({[(cyclopropyl-carbamoyl)methyl]carbamoyl} (methanesulfonyl)methyl)-1,3-benzothiazol-6-yl]-N-(2,2,2-trifluoroethyl) benzamide]
28 nM | COCCS(=O)(=O)C(C(=O)NCC(=O)NC1CC1)c1nc2cc(-c3ccc(NC(=O)OC)cc3)ccc2s1 (stereo not drawn) [Example 104, methyl N-{4-[2-({[(cyclopropyl-carbamoyl)methyl]carbamoyl}(2-methoxyethane-sulfonyl)methyl)-1,3-benzothiazol-5-yl]phenyl} carbamate]
28 nM | COCCS(=O)(=O)C(C(=O)NCC(=O)NC1CC1)c1nc2cc(Cl)c(-c3ccc(F)nc3)cc2s1 (stereo not drawn) [Example 105, 2-[5-chloro-6-(6-fluoropyridin-3-yl)-1,3-benzothiazol-2-yl]-N-[(cyclopropyl-carbamoyl)methyl]-2-(2-methoxyethane-sulfonyl)acetamide]
30 nM | COCCS(=O)(=O)C(C(=O)NCC(=O)NC1CC1)c1nc2cc(-c3ccc(NC(C)=O)cc3)ccc2s1 (stereo not drawn) [Example 106, N-[(cyclopropyl-carbamoyl)methyl]-2-[5-(4-acetamidophenyl)-1,3-benzothiazol-2-yl]-2-(2-methoxyethane-sulfonyl)acetamide]
34 nM | COCCS(=O)(=O)C(C(=O)NCC(=O)NC1CC1)c1nc2cc(Cl)c(-c3ccnn3C)cc2s1 (stereo not drawn) [Example 107]
51 nM | COCCS(=O)(=O)C(C(=O)NCC(=O)NC1CC1)c1nc2cc(Cl)c(-c3ccn(C)c(=O)c3)cc2s1 (stereo not drawn) [Example 108, 2-[5-chloro-6-(1-methyl-2-oxo-1,2-dihydropyridin-4-yl)-1,3-benzothiazol-2-yl]-N-[(cyclopropyl-carbamoyl)methyl]-2-(2-methoxyethane-sulfonyl)acetamide]
14 nM | CC(C)(O)Cn1cc(-c2ccc3nc(C(C(=O)NCC(=O)NC4CC4)S(C)(=O)=O)sc3c2)cn1 (stereo not drawn) [Example 109, N-[(cyclopropyl-carbamoyl)methyl]-2-{6-[1-(2-hydroxy-2-methylpropyl)-1H-pyrazol-4-yl]-1,3-benzothiazol-2-yl}-2-methanesulfonyl-acetamide]
31 nM | COCCS(=O)(=O)C(C(=O)NCC(=O)NC1CC1)c1nc2ccc(-c3cnn(CC(C)(C)O)c3)cc2s1 (stereo not drawn) [Example 110, N-[(cyclopropyl-carbamoyl)methyl]-2-{6-[1-(2-hydroxy-2-methylpropyl)-1H-pyrazol-4-yl]-1,3-enzothiazol-2-yl}-2-(2-methoxyethane-sulfonyl) acetamide]
